Assay [1] relates to herpes simplex virus 1 (HSV-1). Kind of assay: Plaque reduction assay. The format is cell-based. The following applies: Human alphaherpesvirus 1. On the technique in general: Plaques are areas of infected cells; plaque reduction assays count them against a control.
Assay [2] has as its system ADV7. The following applies: cited from earlier work.

≈ marks a conversion by molar mass, not a printed value.

The text below walks through data of publication PMC9557897 (ACS Omega, 2022).

As usually defined, the IC50 is the midpoint of a concentration-inhibition curve. Broadly, the EC50 is the concentration needed to bring the measured effect to its halfway point.

In assay [1], `Nc1nc2c(ncn2COCCO)c(=O)[nH]1` [acyclovir] displayed an IC50 of 0.07 µg/mL (≈ 0.311 µM).

For the compound `NC(=O)c1ncn([C@@H]2O[C@H](CO)[C@@H](O)[C@H]2O)n1` [ribavirin], the EC50 in assay [2] is 27.8 µg/mL (≈ 114 µM).
